Test results published in US20250195521A1 (Revolution Medicines, Inc., priority 2020, published 2025).
Read-outs that look alike come from different tables or passages of the source.

Experiments:
NCI-H358 (K-Ras G12C) = assay: CellTiter-Glo cell viability assay, NCI-H358; format: cell-based, human; conditions: 5-day treatment, read-out: H358 Cell Viability assay data (K-Ras G12C, IC50)
Procedure, shortened: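 Viability read-out was luminescent (CellTiter-Glo) on day 5 of compound exposure in K-Ras G12C NCI-H358 cells. Values were expressed as percent of mean DMSO signal and fitted with a four-parameter logistic curve.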

NRAS WT = NRAS WT (Homo sapiens (Human), UniProt P01111+P62937); assay: Ras-Raf disruption/FRET/MOA assay (BRAF RBD, Cyclophilin A); format: biochemical
NRAS WT, sequence (P01111 whole entry): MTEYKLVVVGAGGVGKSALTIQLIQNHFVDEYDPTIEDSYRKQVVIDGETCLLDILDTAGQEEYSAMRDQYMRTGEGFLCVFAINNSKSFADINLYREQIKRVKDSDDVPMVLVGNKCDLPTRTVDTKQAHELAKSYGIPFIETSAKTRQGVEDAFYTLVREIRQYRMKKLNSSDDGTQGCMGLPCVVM
NRAS WT, sequence (P62937 whole entry): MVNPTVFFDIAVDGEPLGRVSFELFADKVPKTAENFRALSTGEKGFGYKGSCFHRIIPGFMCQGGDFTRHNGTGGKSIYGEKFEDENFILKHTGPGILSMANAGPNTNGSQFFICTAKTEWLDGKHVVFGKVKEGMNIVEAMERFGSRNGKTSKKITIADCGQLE
Procedure, shortened: (§1)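 TR-FRET read after 1.5 h with 10 nM anti-His Eu-W1024 and 50 nM anti-GST APC, following 3 h at 25 °C of GMPPNP-loaded His6-Ras (12.5 nM), GST-BRAF RBD (50 nM) and Cyclophilin A (25 μM) with compound from 30 μM final, 10 points, 3-fold. IC50 reported; pH 7.3 HEPES, 100 mM NaCl.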

KRAS Q61H = KRAS Q61H (Homo sapiens (Human), UniProt P01116+P62937, Q61H); assay: as above; format: biochemical
KRAS Q61H, sequence (P01116 other isoform, or with tags, fused parts or gaps Q61H): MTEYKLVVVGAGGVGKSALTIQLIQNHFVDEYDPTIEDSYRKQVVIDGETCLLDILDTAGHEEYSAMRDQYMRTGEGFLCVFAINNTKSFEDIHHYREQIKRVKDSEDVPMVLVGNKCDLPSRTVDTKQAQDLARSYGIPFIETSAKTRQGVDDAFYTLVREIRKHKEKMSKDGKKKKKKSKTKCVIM
KRAS Q61H, sequence (P62937 whole entry): as the sequence (P62937 whole entry) above
Procedure, shortened: (§2)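 TR-FRET readout: anti-His Eu-W1024 (10 nM) and anti-GST allophycocyanin (50 nM) added after 3 h, 25° C compound incubation, then 1.5 h more. Decrease in FRET ratio versus DMSO wells marks Ras:RAF disruption; IC50 reported.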

KRAS G13D = KRAS G13D (Homo sapiens (Human), UniProt P01116+P62937, G13D); assay: as above; format: biochemical; conditions: read-out: KRAS G13D FRET data IC50
KRAS G13D, sequence (P01116 other isoform, or with tags, fused parts or gaps G13D): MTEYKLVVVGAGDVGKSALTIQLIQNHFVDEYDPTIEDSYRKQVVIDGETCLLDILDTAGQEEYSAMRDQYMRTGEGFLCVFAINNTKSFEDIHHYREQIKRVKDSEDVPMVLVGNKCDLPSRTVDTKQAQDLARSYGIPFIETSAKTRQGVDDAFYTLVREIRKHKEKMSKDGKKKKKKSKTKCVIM
KRAS G13D, sequence (P62937 whole entry): as the sequence (P62937 whole entry) above
Procedure, shortened: as §2

NRAS G12C = NRAS G12C (Homo sapiens (Human), UniProt P01111+P62937, G12C); assay: as above; format: biochemical; conditions: read-out: NRAS G12C FRET data IC50
NRAS G12C, sequence (P01111 whole entry G12C): as the sequence (P01111 whole entry) above, with G12C counted along it
NRAS G12C, sequence (P62937 whole entry): as the sequence (P62937 whole entry) above
Procedure, shortened: as §1

KRAS WT = KRAS WT (Homo sapiens (Human), UniProt P01116+P62937); assay: as above; format: biochemical; conditions: read-out: KRAS WT FRET data IC50
KRAS WT, sequence (P01116 other isoform, or with tags, fused parts or gaps): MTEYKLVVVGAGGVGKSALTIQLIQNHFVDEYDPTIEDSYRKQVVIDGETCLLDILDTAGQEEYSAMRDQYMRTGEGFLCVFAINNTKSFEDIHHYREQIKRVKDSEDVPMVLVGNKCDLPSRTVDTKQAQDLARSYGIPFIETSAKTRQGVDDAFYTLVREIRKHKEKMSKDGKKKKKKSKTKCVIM
KRAS WT, sequence (P62937 whole entry): as the sequence (P62937 whole entry) above
Procedure, shortened: as §2

KRAS G12C = KRAS G12C (Homo sapiens (Human), UniProt P01116+P62937, G12C); assay: as above; format: biochemical; conditions: read-out: KRAS G12C FRET IC50
KRAS G12C, sequence (P01116-2 other isoform, or with tags, fused parts or gaps G12C): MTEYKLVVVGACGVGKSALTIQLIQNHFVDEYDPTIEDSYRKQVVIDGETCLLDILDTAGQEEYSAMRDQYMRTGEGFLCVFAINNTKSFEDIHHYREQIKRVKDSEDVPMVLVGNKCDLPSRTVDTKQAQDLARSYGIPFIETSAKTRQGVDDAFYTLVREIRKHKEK
KRAS G12C, sequence (P62937 whole entry): as the sequence (P62937 whole entry) above
Procedure, shortened: as §2

KRAS G12S = KRAS G12S (Homo sapiens (Human), UniProt P01116+P62937, G12S); assay: as above; format: biochemical; conditions: read-out: KRAS G12S FRET IC50
KRAS G12S, sequence (P01116 other isoform, or with tags, fused parts or gaps G12S): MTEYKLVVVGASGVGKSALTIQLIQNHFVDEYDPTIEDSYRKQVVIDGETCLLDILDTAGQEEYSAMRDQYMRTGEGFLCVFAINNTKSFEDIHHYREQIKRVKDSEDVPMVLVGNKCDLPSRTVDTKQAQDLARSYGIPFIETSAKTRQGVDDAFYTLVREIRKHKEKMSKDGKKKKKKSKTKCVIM
KRAS G12S, sequence (P62937 whole entry): as the sequence (P62937 whole entry) above
Procedure, shortened: as §2

NRAS Q61K = NRAS Q61K (Homo sapiens (Human), UniProt P01111+P62937, Q61K); assay: as above; format: biochemical
NRAS Q61K, sequence (P01111 whole entry Q61K): as the sequence (P01111 whole entry) above, with Q61K counted along it
NRAS Q61K, sequence (P62937 whole entry): as the sequence (P62937 whole entry) above
Procedure, shortened: as §1

KRAS G12D = KRAS G12D (Homo sapiens (Human), UniProt P01116+P62937, G12D); assay: as above; format: biochemical; conditions: read-out: KRAS G12D FRET IC50
KRAS G12D, sequence (P01116 other isoform, or with tags, fused parts or gaps G12D): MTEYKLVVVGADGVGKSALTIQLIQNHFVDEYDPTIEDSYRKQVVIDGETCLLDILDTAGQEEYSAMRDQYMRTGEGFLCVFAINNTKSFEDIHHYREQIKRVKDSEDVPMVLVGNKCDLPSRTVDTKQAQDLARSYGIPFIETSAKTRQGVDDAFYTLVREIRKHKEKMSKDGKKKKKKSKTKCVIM
KRAS G12D, sequence (P62937 whole entry): as the sequence (P62937 whole entry) above
Procedure, shortened: as §2

KRAS G13C = KRAS G13C (Homo sapiens (Human), UniProt P01116+P62937, G13C); assay: as above; format: biochemical; conditions: read-out: KRAS G13C FRET IC50
KRAS G13C, sequence (P01116 other isoform, or with tags, fused parts or gaps G13C): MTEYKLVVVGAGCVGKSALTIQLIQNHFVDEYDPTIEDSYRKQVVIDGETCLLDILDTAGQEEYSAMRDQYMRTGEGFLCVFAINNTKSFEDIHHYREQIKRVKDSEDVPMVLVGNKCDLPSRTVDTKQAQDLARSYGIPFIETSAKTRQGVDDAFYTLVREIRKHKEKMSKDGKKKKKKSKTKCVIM
KRAS G13C, sequence (P62937 whole entry): as the sequence (P62937 whole entry) above
Procedure, shortened: as §2

KRAS G12V = KRAS G12V (Homo sapiens (Human), UniProt P01116+P62937, G12V); assay: as above; format: biochemical; conditions: read-out: KRAS G12V FRET IC50
KRAS G12V, sequence (P01116 other isoform, or with tags, fused parts or gaps G12V): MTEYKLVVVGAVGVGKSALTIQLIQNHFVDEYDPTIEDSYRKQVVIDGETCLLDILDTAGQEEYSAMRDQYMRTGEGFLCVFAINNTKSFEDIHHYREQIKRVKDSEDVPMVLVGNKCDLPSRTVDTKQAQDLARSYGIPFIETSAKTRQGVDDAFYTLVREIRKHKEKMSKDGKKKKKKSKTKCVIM
KRAS G12V, sequence (P62937 whole entry): as the sequence (P62937 whole entry) above
Procedure, shortened: as §2

NRAS Q61R = NRAS Q61R (Homo sapiens (Human), UniProt P01111+P62937, Q61R); assay: as above; format: biochemical
NRAS Q61R, sequence (P01111 whole entry Q61R): as the sequence (P01111 whole entry) above, with Q61R counted along it
NRAS Q61R, sequence (P62937 whole entry): as the sequence (P62937 whole entry) above
Procedure, shortened: as §1

SMILES | IC50 (NCI-H358 (K-Ras G12C)) | IC50 (NCI-H358 (K-Ras G12C); Homo sapiens, NCI-H358, 120 h) | IC50 (NRAS WT) | IC50 (KRAS Q61H) | IC50 (KRAS G13D) | IC50 (NRAS G12C) | IC50 (KRAS WT) | IC50 (KRAS G12C) | IC50 (KRAS G12S) | IC50 (NRAS Q61K) | IC50 (KRAS G12D) | IC50 (KRAS G13C) | IC50 (KRAS G12V) | IC50 (NRAS Q61R)
CCn1c(-c2cccnc2[C@H](C)OC)c2c3cc(ccc31)-c1cc(O)cc(c1)C[C@H](NC(=O)C1CCC3C1C3(F)F)C(=O)N1CCC[C@H](N1)C(=O)OCC(C)(C)C2 (some centres unmarked) [Compound A181] | 10 to 100 nM | < 10 nM | 1000 to 10000 nM | 100 to 1000 nM | 1000 to 10000 nM | 1000 to 10000 nM | 1000 to 10000 nM | 1000 to 10000 nM | 1000 to 10000 nM | 1000 to 10000 nM | > 10000 nM | 100 to 1000 nM | 1000 to 10000 nM | 
CCn1c(-c2cccnc2[C@H](C)OC)c2c3cc(ccc31)-c1csc(n1)C[C@H](NC(=O)[C@H](C(C)C)N(C)C(=O)N1CCN(C(C)=O)CC1)C(=O)N1CCC[C@H](N1)C(=O)OCC(C)(C)C2 [Compound A291] |  | < 10 nM | 10 to 100 nM | 10 to 100 nM | 100 to 1000 nM | 10 to 100 nM | 10 to 100 nM | 10 to 100 nM | 10 to 100 nM |  | 100 to 1000 nM | 100 to 1000 nM | 100 to 1000 nM | 
CCn1c(-c2cccnc2[C@H](C)OC)c2c3cc(ccc31)-c1cc(O)cc(c1)C[C@H](NC(=O)[C@H](C(C)C)N(C)C(=O)C1CCC3(CCOC3)O1)C(=O)N1CCC[C@H](N1)C(=O)OCC(C)(C)C2 (some centres unmarked) [Compound A409] |  | 10 to 100 nM | 10 to 100 nM | 10 to 100 nM | 10 to 100 nM | 10 to 100 nM | 10 to 100 nM | 10 to 100 nM | 10 to 100 nM |  | 100 to 1000 nM | 10 to 100 nM | 100 to 1000 nM | 100 to 1000 nM
CCn1c(-c2cccnc2[C@H](C)OC)c2c3cc(ccc31)-c1csc(n1)C[C@H](NC(=O)[C@H](C(C)C)N(C)C(=O)N1C[C@@H]3OCCN(C)[C@@H]3C1)C(=O)N1CCC[C@H](N1)C(=O)OCC(C)(C)C2 [Compound A444] |  | < 10 nM | 100 to 1000 nM | 10 to 100 nM | 100 to 1000 nM | 10 to 100 nM | 100 to 1000 nM | 10 to 100 nM | 100 to 1000 nM |  | 100 to 1000 nM | 100 to 1000 nM | 100 to 1000 nM | 100 to 1000 nM
CCn1c(-c2cc(N3CCN(C)CC3)cnc2[C@H](C)OC)c2c3cc(ccc31)-c1csc(n1)C[C@H](NC(=O)[C@H](C(C)C)N(C)C(=O)N1CC(OC)C1)C(=O)N1CCC[C@H](N1)C(=O)OCC(C)(C)C2 [Compound A466] |  | < 10 nM | 10 to 100 nM | 10 to 100 nM | 100 to 1000 nM | 10 to 100 nM | 100 to 1000 nM | 10 to 100 nM | 100 to 1000 nM |  | 100 to 1000 nM | 100 to 1000 nM | 100 to 1000 nM | 
CCOC1c2nc(cs2)-c2ccc3c(c2)c(c(-c2cc(C4CC5COCC(C4)N5C4CC4)cnc2C(C)OC)n3CC)CC(C)(C)COC(=O)C2CCCN(N2)C(=O)C1NC(=O)C1C(C)C1C [Compound A483, (1r,2R,3S)—N-((6^3S,3S,4S,Z)-12-(5-((1R,5S,7s)-9-cyclopropyl-3-oxa-9-azabicyclo[3.3.1]nonan-7-yl)-2-((S)-1-methoxyethyl)pyridin-3-yl)-3-ethoxy-1^1-ethyl-10,10-dimethyl-5,7-dioxo-6^1,6^2,6^3,6^4,6^5,6^6-hexahydro-1^1H-8-oxa-2 (4,2)-thiazola-1 (5,3)-indola-6 (1,3)-pyridazinacycloundecaphane-4-yl)-2,3-dimethylcyclopropane-1-carboxamide] | < 10 nM |  |  | 10 to 100 nM |  |  |  | 10 to 100 nM | 10 to 100 nM |  | 10 to 100 nM | 100 to 1000 nM | 100 to 1000 nM | 
CCn1c(-c2cccnc2[C@H](C)OC)c2c3cc(ccc31)-c1csc(n1)C[C@H](NC(=O)[C@H](C(C)C)N(C)C(=O)N1CCC13CCS(=O)(=O)CC3)C(=O)N1CCC[C@H](N1)C(=O)OCC(C)(C)C2 [Compound A530] |  | 10 to 100 nM | 100 to 1000 nM | 10 to 100 nM | 1000 to 10000 nM | 100 to 1000 nM | 100 to 1000 nM | 100 to 1000 nM | 100 to 1000 nM |  | 1000 to 10000 nM | 100 to 1000 nM | 100 to 1000 nM | 100 to 1000 nM
CCn1c(-c2cccnc2[C@H](C)OC)c2c3cc(ccc31)-c1csc(n1)C[C@H](NC(=O)[C@H](C(C)C)N(C)C(=O)N1CC([C@H](C)COC)C1)C(=O)N1CCC[C@H](N1)C(=O)OCC(C)(C)C2 [Compound A533] |  | < 10 nM | 10 to 100 nM | 10 to 100 nM | 100 to 1000 nM | 10 to 100 nM | 100 to 1000 nM | 10 to 100 nM | 100 to 1000 nM |  | 100 to 1000 nM | 100 to 1000 nM | 100 to 1000 nM | 100 to 1000 nM
CCn1c(-c2cccnc2[C@H](C)OC)c2c3cc(ccc31)-c1csc(n1)C[C@H](NC(=O)[C@H](C(C)C)N(C)C(=O)N1CC([C@H](C)N(C)C)C1)C(=O)N1CCC[C@H](N1)C(=O)OCC(C)(C)C2 [Compound A538] |  | 10 to 100 nM | 100 to 1000 nM | 10 to 100 nM | 100 to 1000 nM | 10 to 100 nM | 100 to 1000 nM | 10 to 100 nM | 100 to 1000 nM |  | 100 to 1000 nM | 100 to 1000 nM | 100 to 1000 nM | 100 to 1000 nM
CCn1c(-c2cccnc2[C@H](C)OC)c2c3cc(ccc31)-c1cc(O)cc(c1)C[C@H](NC(=O)[C@H](C(C)C)N(C)C(=O)[C@@H]1OCC[C@H]1c1ccccc1)C(=O)N1CCC[C@H](N1)C(=O)OCC(C)(C)C2 [Compound A584] |  | < 10 nM | 10 to 100 nM | 10 to 100 nM | 10 to 100 nM | 10 to 100 nM | 10 to 100 nM | 10 to 100 nM | 10 to 100 nM |  | 10 to 100 nM | 10 to 100 nM | 10 to 100 nM | 
CCn1c(-c2cccnc2[C@H](C)OC)c2c3cc(ccc31)-c1csc(n1)C[C@H](NC(=O)[C@H](C(C)C)N(C)C(=O)N1CCN(C(=O)[C@@H]3CCCN3C)CC1)C(=O)N1CCC[C@H](N1)C(=O)OCC(C)(C)C2 [Compound A596] |  | < 10 nM | 10 to 100 nM | 10 to 100 nM | 100 to 1000 nM | 10 to 100 nM | 10 to 100 nM | 10 to 100 nM | 100 to 1000 nM |  | 100 to 1000 nM | 100 to 1000 nM | 100 to 1000 nM | 100 to 1000 nM
